The values that follow are results of earlier work, collected in patent US10092644B2, “Use of fluorinated cyclic dinucleotides as oral vaccine adjuvants” (BROCK UNIVERSITY, priority 2013, dated 2018).

The data set deals with S. penuemoniae pneumolysin toxid (PdB) or pneumococal surface protection (PspA). To be noted: mice, interperitoneally, PdB or PspA adjuvanted with c-di-GMP (Chen et al. 2010; Ogunniyi et al. 2008); cited from earlier work.

Molecules are shown by their SMILES.

As to `Nc1nc2c(ncn2C2OC3COP(=O)(O)OC4C(COP(=O)(O)OC3C2O)OC(n2cnc3c(=O)[nH]c(N)nc32)C4O)c(=O)[nH]1` (stereo not shown) [c-di-GMP, 3′,5′-cyclic diguanylic acid], the antigen-specific antibody response result is on record as “enhanced”.
